Measured values published in the supplement of paper PMC4862054.

system: MFM-223; assay: normalised response (% of control), CellTox Green; higher = less cell death (100 = DMSO, 0 = benzethonium chloride kill control); details: incubation time: 72 h
How it was run: (§1)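 In 384-well plates holding compound at 5 concentrations in 10-fold steps over a 10,000-fold range specific to each compound, breast cancer cell lines were seeded as 20 µl suspension and incubated 72 h. CellTox Green fluorescence was measured at 485/520 nm, after which CellTiter-Glo luminescence was measured following 10 min at room temperature. Plate signals were normalised to 0.1 % DMSO (100) and a positive kill control (0), and each value is the normalised signal at a single concentration.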

First: CC1(C)CCC(CN2CCN(c3ccc(C(=O)NS(=O)(=O)c4ccc(NCC5CCOCC5)c([N+](=O)[O-])c4)c(Oc4cnc5[nH]ccc5c4)c3)CC2)=C(c2ccc(Cl)cc2)C1 [ABT-199] (10000 nM)
Second: CC(=O)c1c(C)c2cnc(Nc3ccc(N4CCNCC4)cn3)nc2n(C2CCCC2)c1=O [Palbociclib] (10000 nM)
The normalised response of the first is lower: 86.4% for the first, 90.1% for the second.

First: CC(=O)N(O)CCCCCNC(=O)CCC(=O)N(O)CCCCCNC(=O)CCC(=O)N(O)CCCCCN [Deferoxamine] (10000 nM)
Second: C[C@]12CC[C@@H]3c4ccc(OC(=O)N(CCCl)CCCl)cc4CC[C@H]3[C@@H]1CC[C@@H]2O [Estramustine] (10000 nM)
The normalised response of the first is higher: 101% for the first, 96.7% for the second.

First: C[C@]1(O)C[C@@H](c2nc(-c3ccc4ccc(-c5ccccc5)nc4c3)c3c(N)nccn32)C1 [Linsitinib] (10000 nM)
Second: Cc1ccc([N+](=O)[O-])cc1S(=O)(=O)N(C)/N=C/c1cnc2ccc(Br)cn12 [PIK-75] (10000 nM)
The normalised response of the first is higher: 89.9% for the first, 18.6% for the second.

system: CAL-85-1; assay: as above; details: incubation time: 72 h
How it was run: as §1

First: CC1(C)CCC(CN2CCN(c3ccc(C(=O)NS(=O)(=O)c4ccc(NCC5CCOCC5)c([N+](=O)[O-])c4)c(Oc4cnc5[nH]ccc5c4)c3)CC2)=C(c2ccc(Cl)cc2)C1 [ABT-199] (10000 nM)
Second: CC(=O)c1c(C)c2cnc(Nc3ccc(N4CCNCC4)cn3)nc2n(C2CCCC2)c1=O [Palbociclib] (10000 nM)
The normalised response of the first is higher: 114% for the first, 103% for the second.

First: CC(=O)N(O)CCCCCNC(=O)CCC(=O)N(O)CCCCCNC(=O)CCC(=O)N(O)CCCCCN [Deferoxamine] (10000 nM)
Second: C[C@]12CC[C@@H]3c4ccc(OC(=O)N(CCCl)CCCl)cc4CC[C@H]3[C@@H]1CC[C@@H]2O [Estramustine] (10000 nM)
The normalised response of the first is lower: 128% for the first, 130% for the second.

Compared with C[C@]1(O)C[C@@H](c2nc(-c3ccc4ccc(-c5ccccc5)nc4c3)c3c(N)nccn32)C1 [Linsitinib] (10000 nM), Cc1ccc([N+](=O)[O-])cc1S(=O)(=O)N(C)/N=C/c1cnc2ccc(Br)cn12 [PIK-75] (10000 nM) is lower in normalised response: 89.2% for the first, 50.7% for the second.

system: Hs578T; assay: as above; details: incubation time: 72 h
How it was run: as §1

Going from CC1(C)CCC(CN2CCN(c3ccc(C(=O)NS(=O)(=O)c4ccc(NCC5CCOCC5)c([N+](=O)[O-])c4)c(Oc4cnc5[nH]ccc5c4)c3)CC2)=C(c2ccc(Cl)cc2)C1 [ABT-199] (10000 nM) to CC(=O)c1c(C)c2cnc(Nc3ccc(N4CCNCC4)cn3)nc2n(C2CCCC2)c1=O [Palbociclib] (10000 nM), the normalised response rises from 102% to 135%.

Compared with CC(=O)N(O)CCCCCNC(=O)CCC(=O)N(O)CCCCCNC(=O)CCC(=O)N(O)CCCCCN [Deferoxamine] (10000 nM), C[C@]12CC[C@@H]3c4ccc(OC(=O)N(CCCl)CCCl)cc4CC[C@H]3[C@@H]1CC[C@@H]2O [Estramustine] (10000 nM) is lower in normalised response: 113% for the first, 79.7% for the second.

First: C[C@]1(O)C[C@@H](c2nc(-c3ccc4ccc(-c5ccccc5)nc4c3)c3c(N)nccn32)C1 [Linsitinib] (10000 nM)
Second: Cc1ccc([N+](=O)[O-])cc1S(=O)(=O)N(C)/N=C/c1cnc2ccc(Br)cn12 [PIK-75] (10000 nM)
The normalised response of the first is higher: 68.2% for the first, -10.9% for the second.

system: BT-549; assay: as above; details: incubation time: 72 h
How it was run: as §1

First: CC1(C)CCC(CN2CCN(c3ccc(C(=O)NS(=O)(=O)c4ccc(NCC5CCOCC5)c([N+](=O)[O-])c4)c(Oc4cnc5[nH]ccc5c4)c3)CC2)=C(c2ccc(Cl)cc2)C1 [ABT-199] (10000 nM)
Second: CC(=O)c1c(C)c2cnc(Nc3ccc(N4CCNCC4)cn3)nc2n(C2CCCC2)c1=O [Palbociclib] (10000 nM)
The normalised response of the first is lower: 84.9% for the first, 106% for the second.

First: CC(=O)N(O)CCCCCNC(=O)CCC(=O)N(O)CCCCCNC(=O)CCC(=O)N(O)CCCCCN [Deferoxamine] (10000 nM)
Second: C[C@]12CC[C@@H]3c4ccc(OC(=O)N(CCCl)CCCl)cc4CC[C@H]3[C@@H]1CC[C@@H]2O [Estramustine] (10000 nM)
The normalised response of the first is higher: 81.3% for the first, 58% for the second.

Compared with C[C@]1(O)C[C@@H](c2nc(-c3ccc4ccc(-c5ccccc5)nc4c3)c3c(N)nccn32)C1 [Linsitinib] (10000 nM), Cc1ccc([N+](=O)[O-])cc1S(=O)(=O)N(C)/N=C/c1cnc2ccc(Br)cn12 [PIK-75] (10000 nM) is lower in normalised response: 111% for the first, -7.34% for the second.

system: MDA-MB-468; assay: as above; details: incubation time: 72 h
How it was run: as §1

First: CC1(C)CCC(CN2CCN(c3ccc(C(=O)NS(=O)(=O)c4ccc(NCC5CCOCC5)c([N+](=O)[O-])c4)c(Oc4cnc5[nH]ccc5c4)c3)CC2)=C(c2ccc(Cl)cc2)C1 [ABT-199] (10000 nM)
Second: CC(=O)c1c(C)c2cnc(Nc3ccc(N4CCNCC4)cn3)nc2n(C2CCCC2)c1=O [Palbociclib] (10000 nM)
The normalised response of the first is lower: 118% for the first, 193% for the second.

First: CC(=O)N(O)CCCCCNC(=O)CCC(=O)N(O)CCCCCNC(=O)CCC(=O)N(O)CCCCCN [Deferoxamine] (10000 nM)
Second: Cc1ccc([N+](=O)[O-])cc1S(=O)(=O)N(C)/N=C/c1cnc2ccc(Br)cn12 [PIK-75] (10000 nM)
The normalised response of the first is higher: 150% for the first, 31.6% for the second.

Work on C[C@]1(O)C[C@@H](c2nc(-c3ccc4ccc(-c5ccccc5)nc4c3)c3c(N)nccn32)C1 [Linsitinib] (10000 nM) yielded a normalised response of 96.4%.

system: DU-4475; assay: as above; details: incubation time: 72 h
How it was run: as §1

Going from CC1(C)CCC(CN2CCN(c3ccc(C(=O)NS(=O)(=O)c4ccc(NCC5CCOCC5)c([N+](=O)[O-])c4)c(Oc4cnc5[nH]ccc5c4)c3)CC2)=C(c2ccc(Cl)cc2)C1 [ABT-199] (10000 nM) to CC(=O)c1c(C)c2cnc(Nc3ccc(N4CCNCC4)cn3)nc2n(C2CCCC2)c1=O [Palbociclib] (10000 nM), the normalised response falls from 97.9% to 97%.

First: CC(=O)N(O)CCCCCNC(=O)CCC(=O)N(O)CCCCCNC(=O)CCC(=O)N(O)CCCCCN [Deferoxamine] (10000 nM)
Second: C[C@]12CC[C@@H]3c4ccc(OC(=O)N(CCCl)CCCl)cc4CC[C@H]3[C@@H]1CC[C@@H]2O [Estramustine] (10000 nM)
The normalised response of the first is lower: 81.2% for the first, 96.4% for the second.

Compared with C[C@]1(O)C[C@@H](c2nc(-c3ccc4ccc(-c5ccccc5)nc4c3)c3c(N)nccn32)C1 [Linsitinib] (10000 nM), Cc1ccc([N+](=O)[O-])cc1S(=O)(=O)N(C)/N=C/c1cnc2ccc(Br)cn12 [PIK-75] (10000 nM) is lower in normalised response: 97.4% for the first, 74.7% for the second.

system: HDQ-P1; assay: as above; details: incubation time: 72 h
How it was run: as §1

Compared with CC1(C)CCC(CN2CCN(c3ccc(C(=O)NS(=O)(=O)c4ccc(NCC5CCOCC5)c([N+](=O)[O-])c4)c(Oc4cnc5[nH]ccc5c4)c3)CC2)=C(c2ccc(Cl)cc2)C1 [ABT-199] (10000 nM), CC(=O)c1c(C)c2cnc(Nc3ccc(N4CCNCC4)cn3)nc2n(C2CCCC2)c1=O [Palbociclib] (10000 nM) is lower in normalised response: 98.2% for the first, 50.1% for the second.

Compared with CC(=O)N(O)CCCCCNC(=O)CCC(=O)N(O)CCCCCNC(=O)CCC(=O)N(O)CCCCCN [Deferoxamine] (10000 nM), Cc1ccc([N+](=O)[O-])cc1S(=O)(=O)N(C)/N=C/c1cnc2ccc(Br)cn12 [PIK-75] (10000 nM) is lower in normalised response: 104% for the first, 66.3% for the second.

Molecule C[C@]1(O)C[C@@H](c2nc(-c3ccc4ccc(-c5ccccc5)nc4c3)c3c(N)nccn32)C1 [Linsitinib] (10000 nM) has a normalised response of 107%.

system: BT-474; assay: as above; details: incubation time: 72 h
How it was run: as §1

Going from CC1(C)CCC(CN2CCN(c3ccc(C(=O)NS(=O)(=O)c4ccc(NCC5CCOCC5)c([N+](=O)[O-])c4)c(Oc4cnc5[nH]ccc5c4)c3)CC2)=C(c2ccc(Cl)cc2)C1 [ABT-199] (10000 nM) to CC(=O)c1c(C)c2cnc(Nc3ccc(N4CCNCC4)cn3)nc2n(C2CCCC2)c1=O [Palbociclib] (10000 nM), the normalised response falls from 101% to 96%.

Compared with CC(=O)N(O)CCCCCNC(=O)CCC(=O)N(O)CCCCCNC(=O)CCC(=O)N(O)CCCCCN [Deferoxamine] (10000 nM), C[C@]12CC[C@@H]3c4ccc(OC(=O)N(CCCl)CCCl)cc4CC[C@H]3[C@@H]1CC[C@@H]2O [Estramustine] (10000 nM) is higher in normalised response: 82.7% for the first, 99% for the second.

Going from C[C@]1(O)C[C@@H](c2nc(-c3ccc4ccc(-c5ccccc5)nc4c3)c3c(N)nccn32)C1 [Linsitinib] (10000 nM) to Cc1ccc([N+](=O)[O-])cc1S(=O)(=O)N(C)/N=C/c1cnc2ccc(Br)cn12 [PIK-75] (10000 nM), the normalised response falls from 95.6% to 7.46%.

system: MDA-MB-231; assay: as above; details: incubation time: 72 h
How it was run: as §1

Compared with CC1(C)CCC(CN2CCN(c3ccc(C(=O)NS(=O)(=O)c4ccc(NCC5CCOCC5)c([N+](=O)[O-])c4)c(Oc4cnc5[nH]ccc5c4)c3)CC2)=C(c2ccc(Cl)cc2)C1 [ABT-199] (10000 nM), CC(=O)c1c(C)c2cnc(Nc3ccc(N4CCNCC4)cn3)nc2n(C2CCCC2)c1=O [Palbociclib] (10000 nM) is higher in normalised response: -19% for the first, 121% for the second.

Going from CC(=O)N(O)CCCCCNC(=O)CCC(=O)N(O)CCCCCNC(=O)CCC(=O)N(O)CCCCCN [Deferoxamine] (10000 nM) to C[C@]12CC[C@@H]3c4ccc(OC(=O)N(CCCl)CCCl)cc4CC[C@H]3[C@@H]1CC[C@@H]2O [Estramustine] (10000 nM), the normalised response rises from 98.7% to 102%.

Compared with C[C@]1(O)C[C@@H](c2nc(-c3ccc4ccc(-c5ccccc5)nc4c3)c3c(N)nccn32)C1 [Linsitinib] (10000 nM), Cc1ccc([N+](=O)[O-])cc1S(=O)(=O)N(C)/N=C/c1cnc2ccc(Br)cn12 [PIK-75] (10000 nM) is lower in normalised response: 65% for the first, -38.5% for the second.

system: CAL-51; assay: as above; details: incubation time: 72 h
How it was run: as §1

First: CC1(C)CCC(CN2CCN(c3ccc(C(=O)NS(=O)(=O)c4ccc(NCC5CCOCC5)c([N+](=O)[O-])c4)c(Oc4cnc5[nH]ccc5c4)c3)CC2)=C(c2ccc(Cl)cc2)C1 [ABT-199] (10000 nM)
Second: CC(=O)N(O)CCCCCNC(=O)CCC(=O)N(O)CCCCCNC(=O)CCC(=O)N(O)CCCCCN [Deferoxamine] (10000 nM)
The normalised response of the first is higher: 101% for the first, 48% for the second.
